According to US9492471B2, “Methods of treating a disease or disorder associated with Bruton'S Tyrosine Kinase” (Celgene Avilomics Research, Inc., priority 2013, dated 2016):
Where two headings read alike, the source gives them in different places.

How the values were obtained:
Experiment in all cases: HotSpot kinase profiling
Type in all cases: biochemical
Btk = target: T1, Btk (Homo sapiens, UniProt Q06187)
T1 construct: purchased Reaction Biology Corp
Method in brief: (§1)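 Radiometric kinase assay with P81 filter capture; each kinase was added to fresh substrate plus cofactors in reaction buffer and incubated 2 h at room temperature. Unreacted phosphate was washed off with 0.1% phosphoric acid before detection; percent inhibition is relative to DMSO control, averaged over replicates.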

CAMK1d = target: T2, CAMK1d (Homo sapiens, UniProt Q8IU85)
T2 construct: purchased Reaction Biology Corp
Method in brief: as §1

CK1g2 = target: T3, CK1g2 (Homo sapiens, UniProt P78368)
T3 construct: purchased Reaction Biology Corp
Method in brief: as §1

DAPK2 = target: T4, DAPK2 (Homo sapiens, UniProt Q9UIK4)
T4 construct: purchased Reaction Biology Corp
Method in brief: as §1

HCK = target: T5, HCK (Homo sapiens, UniProt P08631)
T5 construct: purchased Reaction Biology Corp
Method in brief: as §1

IKKe/IKBKE = target: T6, IKKe/IKBKE (Homo sapiens, UniProt Q14164)
T6 construct: purchased Reaction Biology Corp
T6 sequence (Q14164 1-716): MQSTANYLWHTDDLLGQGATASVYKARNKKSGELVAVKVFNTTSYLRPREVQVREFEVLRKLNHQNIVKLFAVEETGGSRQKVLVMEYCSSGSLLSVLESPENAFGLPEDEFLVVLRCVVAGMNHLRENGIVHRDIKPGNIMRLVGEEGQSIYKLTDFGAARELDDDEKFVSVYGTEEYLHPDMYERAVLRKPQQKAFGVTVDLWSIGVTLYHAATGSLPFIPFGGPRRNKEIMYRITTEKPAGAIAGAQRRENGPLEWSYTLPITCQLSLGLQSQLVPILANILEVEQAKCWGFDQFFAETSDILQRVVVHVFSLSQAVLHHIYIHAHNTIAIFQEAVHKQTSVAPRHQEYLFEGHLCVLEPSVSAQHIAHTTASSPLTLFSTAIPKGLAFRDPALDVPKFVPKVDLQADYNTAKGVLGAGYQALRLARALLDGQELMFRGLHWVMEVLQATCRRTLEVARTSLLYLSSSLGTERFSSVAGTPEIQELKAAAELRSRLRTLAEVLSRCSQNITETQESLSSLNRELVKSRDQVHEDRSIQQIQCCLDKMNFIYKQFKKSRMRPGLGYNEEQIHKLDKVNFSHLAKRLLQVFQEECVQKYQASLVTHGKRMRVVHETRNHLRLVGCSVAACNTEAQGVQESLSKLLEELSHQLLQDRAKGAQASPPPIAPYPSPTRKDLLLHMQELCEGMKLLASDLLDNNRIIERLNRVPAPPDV
Method in brief: as §1

PIM2 = target: T7, PIM2 (Homo sapiens, UniProt Q9P1W9)
T7 construct: purchased Reaction Biology Corp
Method in brief: as §1

PKCnu/PRKD3 = target: T8, PKCnu/PRKD3 (Homo sapiens, UniProt O94806)
T8 construct: purchased Reaction Biology Corp
T8 sequence (O94806 1-890): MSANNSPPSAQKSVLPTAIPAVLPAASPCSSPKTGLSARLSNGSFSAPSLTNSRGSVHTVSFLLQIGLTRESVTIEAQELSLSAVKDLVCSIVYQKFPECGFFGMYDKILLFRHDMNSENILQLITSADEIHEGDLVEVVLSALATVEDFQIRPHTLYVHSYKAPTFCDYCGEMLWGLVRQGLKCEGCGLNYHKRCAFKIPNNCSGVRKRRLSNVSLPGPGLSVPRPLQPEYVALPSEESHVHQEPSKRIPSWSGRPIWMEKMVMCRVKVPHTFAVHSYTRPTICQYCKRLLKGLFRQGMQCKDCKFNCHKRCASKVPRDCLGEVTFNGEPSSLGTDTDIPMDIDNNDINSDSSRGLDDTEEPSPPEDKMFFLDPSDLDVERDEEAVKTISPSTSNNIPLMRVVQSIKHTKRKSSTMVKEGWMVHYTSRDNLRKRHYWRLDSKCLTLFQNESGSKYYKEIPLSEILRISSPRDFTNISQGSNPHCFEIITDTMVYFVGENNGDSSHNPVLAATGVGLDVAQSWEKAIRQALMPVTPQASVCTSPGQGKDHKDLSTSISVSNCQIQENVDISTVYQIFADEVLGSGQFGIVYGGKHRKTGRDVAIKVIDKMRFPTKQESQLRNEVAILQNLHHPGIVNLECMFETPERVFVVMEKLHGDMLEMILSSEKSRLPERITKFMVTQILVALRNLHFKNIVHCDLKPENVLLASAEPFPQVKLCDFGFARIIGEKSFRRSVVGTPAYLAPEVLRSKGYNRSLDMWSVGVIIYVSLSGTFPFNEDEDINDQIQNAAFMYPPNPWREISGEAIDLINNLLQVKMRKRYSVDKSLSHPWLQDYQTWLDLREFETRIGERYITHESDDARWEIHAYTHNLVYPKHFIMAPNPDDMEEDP
Method in brief: as §1

RAF1 = details: 3 μM
Method in brief: as §1

c-MET = target: T9, c-MET (Homo sapiens, UniProt P08581)
T9 construct: purchased Reaction Biology Corp
Method in brief: as §1

[1] = read-out: % Enzyme Activity (relative to DMSO controls) Run 1
[2] = read-out: % Enzyme Activity (relative to DMSO controls) Run 2

T9 sequence (P08581 25-1390): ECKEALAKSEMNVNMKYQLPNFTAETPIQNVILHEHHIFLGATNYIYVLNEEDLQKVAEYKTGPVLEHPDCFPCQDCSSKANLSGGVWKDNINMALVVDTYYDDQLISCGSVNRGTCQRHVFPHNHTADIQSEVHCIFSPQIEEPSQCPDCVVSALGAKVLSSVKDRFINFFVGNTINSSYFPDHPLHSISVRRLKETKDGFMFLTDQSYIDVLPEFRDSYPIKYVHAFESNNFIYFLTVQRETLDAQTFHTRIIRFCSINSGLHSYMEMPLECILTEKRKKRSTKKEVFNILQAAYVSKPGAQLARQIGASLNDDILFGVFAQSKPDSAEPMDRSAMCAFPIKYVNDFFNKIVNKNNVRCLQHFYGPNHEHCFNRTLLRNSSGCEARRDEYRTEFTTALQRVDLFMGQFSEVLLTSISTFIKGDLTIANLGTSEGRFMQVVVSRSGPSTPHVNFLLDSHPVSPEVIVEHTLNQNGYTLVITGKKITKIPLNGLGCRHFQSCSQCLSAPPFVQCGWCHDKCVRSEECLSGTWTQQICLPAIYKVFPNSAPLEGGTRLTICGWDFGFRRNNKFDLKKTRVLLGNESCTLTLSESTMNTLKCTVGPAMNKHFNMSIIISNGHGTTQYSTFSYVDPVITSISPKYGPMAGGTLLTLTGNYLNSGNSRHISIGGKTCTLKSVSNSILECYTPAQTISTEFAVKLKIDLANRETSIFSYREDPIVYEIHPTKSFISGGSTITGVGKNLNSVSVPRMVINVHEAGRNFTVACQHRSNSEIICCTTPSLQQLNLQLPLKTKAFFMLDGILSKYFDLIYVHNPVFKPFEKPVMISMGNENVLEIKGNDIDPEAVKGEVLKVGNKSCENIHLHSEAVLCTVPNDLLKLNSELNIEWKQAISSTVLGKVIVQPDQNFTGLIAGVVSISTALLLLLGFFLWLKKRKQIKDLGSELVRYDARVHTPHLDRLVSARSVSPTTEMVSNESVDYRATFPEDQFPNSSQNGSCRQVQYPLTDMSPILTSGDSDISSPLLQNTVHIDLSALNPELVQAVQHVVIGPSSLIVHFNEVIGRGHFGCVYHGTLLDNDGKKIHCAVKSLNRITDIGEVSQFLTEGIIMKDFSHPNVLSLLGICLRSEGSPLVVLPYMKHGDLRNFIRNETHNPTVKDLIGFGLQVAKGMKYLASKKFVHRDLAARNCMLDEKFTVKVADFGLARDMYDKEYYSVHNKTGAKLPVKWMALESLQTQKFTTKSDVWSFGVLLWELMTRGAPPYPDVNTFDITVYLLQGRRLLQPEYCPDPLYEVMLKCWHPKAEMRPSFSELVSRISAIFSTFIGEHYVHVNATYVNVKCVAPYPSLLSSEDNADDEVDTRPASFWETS
T7 sequence (Q9P1W9 whole entry): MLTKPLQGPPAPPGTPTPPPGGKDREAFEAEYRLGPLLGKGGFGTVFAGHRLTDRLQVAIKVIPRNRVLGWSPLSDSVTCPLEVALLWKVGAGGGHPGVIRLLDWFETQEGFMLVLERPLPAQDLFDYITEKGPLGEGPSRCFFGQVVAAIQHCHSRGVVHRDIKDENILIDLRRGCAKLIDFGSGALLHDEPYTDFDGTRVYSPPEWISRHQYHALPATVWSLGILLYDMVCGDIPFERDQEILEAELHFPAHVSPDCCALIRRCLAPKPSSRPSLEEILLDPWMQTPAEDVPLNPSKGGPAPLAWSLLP
T4 sequence (Q9UIK4 whole entry): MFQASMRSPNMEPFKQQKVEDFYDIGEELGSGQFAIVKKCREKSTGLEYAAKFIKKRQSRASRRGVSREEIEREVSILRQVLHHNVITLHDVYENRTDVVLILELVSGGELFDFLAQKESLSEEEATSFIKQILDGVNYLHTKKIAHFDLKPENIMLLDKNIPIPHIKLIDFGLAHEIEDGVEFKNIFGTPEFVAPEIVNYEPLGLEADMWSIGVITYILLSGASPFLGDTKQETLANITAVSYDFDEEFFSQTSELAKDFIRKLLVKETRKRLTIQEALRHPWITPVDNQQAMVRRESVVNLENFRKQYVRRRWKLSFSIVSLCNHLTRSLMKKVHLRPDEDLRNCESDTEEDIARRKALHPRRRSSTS
T5 sequence (P08631 whole entry): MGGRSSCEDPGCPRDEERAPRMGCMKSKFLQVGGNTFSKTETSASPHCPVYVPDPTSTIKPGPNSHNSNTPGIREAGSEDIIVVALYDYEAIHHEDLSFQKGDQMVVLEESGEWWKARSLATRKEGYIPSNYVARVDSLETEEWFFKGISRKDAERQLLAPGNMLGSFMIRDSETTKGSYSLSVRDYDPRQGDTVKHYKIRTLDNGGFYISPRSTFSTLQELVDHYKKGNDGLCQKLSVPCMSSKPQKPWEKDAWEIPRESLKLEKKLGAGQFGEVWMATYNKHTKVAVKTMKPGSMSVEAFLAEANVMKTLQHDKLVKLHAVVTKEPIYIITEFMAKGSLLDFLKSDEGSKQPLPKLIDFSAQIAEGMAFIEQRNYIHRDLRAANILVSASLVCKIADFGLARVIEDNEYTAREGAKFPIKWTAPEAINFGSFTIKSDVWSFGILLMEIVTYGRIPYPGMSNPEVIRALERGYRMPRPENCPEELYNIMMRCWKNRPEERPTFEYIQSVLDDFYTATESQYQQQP
T2 sequence (Q8IU85 whole entry): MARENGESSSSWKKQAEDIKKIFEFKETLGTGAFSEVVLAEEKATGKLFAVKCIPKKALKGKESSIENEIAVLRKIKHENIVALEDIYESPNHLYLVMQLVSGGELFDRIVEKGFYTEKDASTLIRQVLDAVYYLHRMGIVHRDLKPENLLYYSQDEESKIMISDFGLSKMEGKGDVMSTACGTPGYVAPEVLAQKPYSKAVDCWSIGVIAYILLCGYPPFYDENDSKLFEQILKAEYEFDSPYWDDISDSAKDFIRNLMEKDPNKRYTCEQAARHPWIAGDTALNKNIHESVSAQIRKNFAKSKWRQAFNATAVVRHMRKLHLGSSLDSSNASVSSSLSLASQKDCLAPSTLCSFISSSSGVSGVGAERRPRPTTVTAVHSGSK
T1 sequence (Q06187 whole entry): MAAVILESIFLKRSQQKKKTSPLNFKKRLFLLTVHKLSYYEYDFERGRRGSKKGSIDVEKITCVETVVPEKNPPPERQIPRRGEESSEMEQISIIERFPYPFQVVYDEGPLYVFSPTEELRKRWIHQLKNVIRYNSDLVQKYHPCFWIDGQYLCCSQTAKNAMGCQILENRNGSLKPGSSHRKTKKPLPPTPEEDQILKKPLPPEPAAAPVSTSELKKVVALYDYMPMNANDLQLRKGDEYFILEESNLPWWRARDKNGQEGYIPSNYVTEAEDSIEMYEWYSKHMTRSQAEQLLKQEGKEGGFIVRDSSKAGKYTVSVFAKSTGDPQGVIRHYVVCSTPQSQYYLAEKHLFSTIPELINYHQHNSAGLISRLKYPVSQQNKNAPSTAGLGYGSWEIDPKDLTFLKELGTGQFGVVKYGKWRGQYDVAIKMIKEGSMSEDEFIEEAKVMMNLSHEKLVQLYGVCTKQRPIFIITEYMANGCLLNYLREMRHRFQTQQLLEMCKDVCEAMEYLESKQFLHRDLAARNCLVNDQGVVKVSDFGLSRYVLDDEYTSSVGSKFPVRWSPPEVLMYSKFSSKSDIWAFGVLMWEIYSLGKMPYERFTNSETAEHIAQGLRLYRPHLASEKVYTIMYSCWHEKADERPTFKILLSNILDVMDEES
T3 sequence (P78368 whole entry): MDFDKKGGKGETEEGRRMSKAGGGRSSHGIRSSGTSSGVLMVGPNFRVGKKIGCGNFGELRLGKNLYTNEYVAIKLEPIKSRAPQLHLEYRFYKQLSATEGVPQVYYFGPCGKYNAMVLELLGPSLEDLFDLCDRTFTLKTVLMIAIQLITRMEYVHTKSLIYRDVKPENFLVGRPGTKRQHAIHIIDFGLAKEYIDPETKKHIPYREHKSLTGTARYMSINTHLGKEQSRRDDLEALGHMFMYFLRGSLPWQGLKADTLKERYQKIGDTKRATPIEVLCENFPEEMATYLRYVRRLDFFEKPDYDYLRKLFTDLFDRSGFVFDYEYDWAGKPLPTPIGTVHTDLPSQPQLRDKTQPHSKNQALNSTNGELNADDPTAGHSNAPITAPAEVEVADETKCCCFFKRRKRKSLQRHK

SMILES: C=CC(=O)Nc1cccc(Nc2nc(Nc3ccc(OCCOC)c(F)c3)ncc2F)c1 [Compound 2]
- inhibition at 3 µM (Btk): 95.5%
- remaining activity at 3 µM (Btk; [1]): 3.69%
- remaining activity at 3 µM (Btk; [2]): 5.4%
- inhibition at 3 µM (CAMK1d): -3.36%
- remaining activity at 3 µM (CAMK1d; [1]): 104%
- remaining activity at 3 µM (CAMK1d; [2]): 103%
- inhibition at 3 µM (CK1g2): 12.6%
- remaining activity at 3 µM (CK1g2; [1]): 89.1%
- remaining activity at 3 µM (CK1g2; [2]): 85.7%
- inhibition at 3 µM (DAPK2): -9.89%
- remaining activity at 3 µM (DAPK2; [1]): 108%
- remaining activity at 3 µM (DAPK2; [2]): 112%
- inhibition at 3 µM (HCK): 29.5%
- remaining activity at 3 µM (HCK; [1]): 72%
- remaining activity at 3 µM (HCK; [2]): 69%
- inhibition at 3 µM (IKKe/IKBKE): 21.8%
- remaining activity at 3 µM (IKKe/IKBKE; [1]): 78.3%
- remaining activity at 3 µM (IKKe/IKBKE; [2]): 78.2%
- inhibition at 3 µM (PIM2): -32.5%
- remaining activity at 3 µM (PIM2; [1]): 136%
- remaining activity at 3 µM (PIM2; [2]): 129%
- inhibition at 3 µM (PKCnu/PRKD3): 20.1%
- remaining activity at 3 µM (PKCnu/PRKD3; [1]): 80.1%
- remaining activity at 3 µM (PKCnu/PRKD3; [2]): 79.8%
- % Enzyme Activity (relative to DMSO controls) Run 1 (RAF1): 83.34%
- % Enzyme Activity (relative to DMSO controls) Run 2 (RAF1): 83.62%
- Average % Inhibition (RAF1): 16.52%
- inhibition at 3 µM (c-MET): -1.49%
- remaining activity at 3 µM (c-MET; [1]): 103%
- remaining activity at 3 µM (c-MET; [2]): 100%
